Source: ChEMBL document CHEMBL4196070, “Development of Piperazinediones as dual inhibitor for treatment of Alzheimer's disease” (Eur J Med Chem, 2018)

Experiments:
[1] = target: T1, 72 kDa type IV collagenase (Homo sapiens, UniProt P08253); assay: Inhibition of human MMP2 using Mca-Pro-Leu-Gly-Leu-Dpa-Ala-Arg-NH as substrate preincubated for 60 mins followed by substrate addition by fluorescence analysis
[2] = target: Cholinesterase (Equus caballus, UniProt P81908); assay: Inhibition of equine serum BuChE using butyrylthiocholine iodide as substrate preincubated for 30 mins followed by substrate addition and measured for 20 mins at 1 min interval by Ellman's method
[3] = Permeability of the compound at 25 ug/ml after 18 hrs by PAMPA-BBB assay; format: ADME; conditions: read-out: permeability
[4] = target: T2, Acetylcholinesterase (Electrophorus electricus, UniProt O42275); assay: Inhibition of electric eel AChE using acetylthiocholine iodide as substrate preincubated for 30 mins followed by substrate addition and measured for 20 mins at 1 min interval by Ellman's method
[5] = Toxicity in Wistar rat measured for 72 hrs; format: organism-based; conditions: in vivo
[6] = Neuroprotective activity against tetracycline removal-induced cytotoxicity in human MC65 cells assessed as cell viability at 70 uM after 12 hrs by MTT assay relative to control; format: functional; conditions: MC65, 12 h, read-out: Activity
[7] = tested on: Rattus norvegicus; assay: Toxicity in Wistar rat assessed as mortality at 300 mg/kg measured for 72 hrs; format: organism-based; conditions: in vivo
[8] = target: T2, Acetylcholinesterase; assay: Non-competitive inhibition of electric eel AChE using acetylthiocholine iodide as substrate preincubated for 30 mins followed by substrate addition by Dixon plot analysis
[9] = target: T1, 72 kDa type IV collagenase; assay: Competitive inhibition of human MMP2 using Mca-Pro-Leu-Gly-Leu-Dpa-Ala-Arg-NH as substrate preincubated for 60 mins followed by substrate addition by secondary plot analysis
[10] = tested on: Mus musculus; assay: Effect on locomotive behavior in Swiss albino mouse at 5 to 20 mg/kg, ip administered once daily for 7 days prior to 4 hrs of training and measured after 5 mins by Y-maze test; format: ADME, organism-based; conditions: in vivo

Chain of Cholinesterase (P81908 whole entry): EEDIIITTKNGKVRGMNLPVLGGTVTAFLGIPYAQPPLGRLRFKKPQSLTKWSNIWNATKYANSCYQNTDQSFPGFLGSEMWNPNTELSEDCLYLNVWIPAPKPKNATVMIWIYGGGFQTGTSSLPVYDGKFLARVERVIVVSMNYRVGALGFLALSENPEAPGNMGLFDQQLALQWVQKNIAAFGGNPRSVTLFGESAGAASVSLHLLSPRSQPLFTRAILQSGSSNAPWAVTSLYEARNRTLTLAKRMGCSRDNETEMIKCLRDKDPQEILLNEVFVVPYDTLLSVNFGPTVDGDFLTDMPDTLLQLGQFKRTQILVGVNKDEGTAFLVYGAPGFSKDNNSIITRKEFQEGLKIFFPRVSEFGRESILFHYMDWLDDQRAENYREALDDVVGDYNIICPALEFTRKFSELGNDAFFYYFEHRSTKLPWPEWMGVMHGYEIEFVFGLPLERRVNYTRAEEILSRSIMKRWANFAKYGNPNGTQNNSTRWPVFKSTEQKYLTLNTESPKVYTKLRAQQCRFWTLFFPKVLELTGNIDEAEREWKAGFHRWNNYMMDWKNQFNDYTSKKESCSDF
T2 sequence (O42275 whole entry): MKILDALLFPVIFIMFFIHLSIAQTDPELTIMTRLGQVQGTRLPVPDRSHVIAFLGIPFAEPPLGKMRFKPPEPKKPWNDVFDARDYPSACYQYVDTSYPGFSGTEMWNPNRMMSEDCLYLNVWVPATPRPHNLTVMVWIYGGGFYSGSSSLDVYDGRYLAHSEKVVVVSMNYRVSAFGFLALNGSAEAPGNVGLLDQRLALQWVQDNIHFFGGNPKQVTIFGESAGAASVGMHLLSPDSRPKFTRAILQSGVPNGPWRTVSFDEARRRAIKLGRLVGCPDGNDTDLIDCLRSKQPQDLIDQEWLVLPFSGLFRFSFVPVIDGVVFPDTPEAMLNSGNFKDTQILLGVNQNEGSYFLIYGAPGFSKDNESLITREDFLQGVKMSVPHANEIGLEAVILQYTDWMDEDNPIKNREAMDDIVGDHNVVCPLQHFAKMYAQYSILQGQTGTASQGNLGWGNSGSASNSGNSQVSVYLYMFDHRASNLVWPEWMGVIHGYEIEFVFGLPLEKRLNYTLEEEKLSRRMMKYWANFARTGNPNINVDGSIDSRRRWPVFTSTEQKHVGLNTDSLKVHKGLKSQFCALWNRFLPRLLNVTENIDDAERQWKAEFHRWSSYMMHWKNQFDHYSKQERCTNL
T1 sequence (P08253 whole entry): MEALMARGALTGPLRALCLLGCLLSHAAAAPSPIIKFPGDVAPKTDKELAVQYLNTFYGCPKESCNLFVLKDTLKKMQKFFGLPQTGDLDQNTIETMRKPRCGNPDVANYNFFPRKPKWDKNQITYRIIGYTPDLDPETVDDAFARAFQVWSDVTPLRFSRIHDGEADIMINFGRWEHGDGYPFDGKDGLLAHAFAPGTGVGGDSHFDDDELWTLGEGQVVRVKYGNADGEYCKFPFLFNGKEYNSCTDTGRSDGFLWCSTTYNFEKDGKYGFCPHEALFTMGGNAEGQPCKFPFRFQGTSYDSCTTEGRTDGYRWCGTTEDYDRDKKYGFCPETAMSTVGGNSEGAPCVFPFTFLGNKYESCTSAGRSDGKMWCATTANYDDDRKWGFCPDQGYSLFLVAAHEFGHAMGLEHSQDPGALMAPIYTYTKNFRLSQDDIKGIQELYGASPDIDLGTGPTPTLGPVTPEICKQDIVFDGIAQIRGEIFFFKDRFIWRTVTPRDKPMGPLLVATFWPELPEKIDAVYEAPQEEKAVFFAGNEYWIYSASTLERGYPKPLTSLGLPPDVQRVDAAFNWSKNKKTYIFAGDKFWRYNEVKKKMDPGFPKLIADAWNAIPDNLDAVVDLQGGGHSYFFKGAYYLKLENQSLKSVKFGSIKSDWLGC

## CCCS(=O)(=O)N1CC(=O)N(S(=O)(=O)CCC)CC1=O
[1]
  IC50: > 1000 nM
[2]
  IC50: > 200 nM
[3]
  Papp at 18 h, 25 ug/ml: 0.89 ×10⁻⁶ cm/s
[4]
  IC50: > 200 nM

## Cc1cccc(S(=O)(=O)N2C(=O)C(c3ccccc3)N(S(=O)(=O)c3cccc(C)c3)C(=O)C2c2ccccc2)c1 (centres undefined)
[1]
  IC50: 73.8 nM
[2]
  IC50: > 200 nM
[3]
  Papp at 18 h, 25 ug/ml: 11.8 ×10⁻⁶ cm/s
[4]
  IC50: 83.9 nM

## O=C1CN(S(=O)(=O)c2ccc(Cl)cc2)C(=O)CN1S(=O)(=O)c1ccc(Cl)cc1
[1]
  IC50: 49.7 nM
[2]
  IC50: 180 nM
[3]
  Papp at 18 h, 25 ug/ml: 6.43 ×10⁻⁶ cm/s
[4]
  IC50: 61.6 nM

## O=C1C(c2ccccc2)N(S(=O)(=O)c2ccc([N+](=O)[O-])cc2)C(=O)C(c2ccccc2)N1S(=O)(=O)c1ccc([N+](=O)[O-])cc1 (centres undefined)
[1]
  IC50: 33.5 nM
[2]
  IC50: 176 nM
[3]
  Papp at 18 h, 25 ug/ml: 4.63 ×10⁻⁶ cm/s
[4]
  IC50: 60.8 nM

## O=C1C(c2ccccc2)N(S(=O)(=O)c2ccc(O)cc2)C(=O)C(c2ccccc2)N1S(=O)(=O)c1ccc(O)cc1 (centres undefined)
[1]
  IC50: 57.2 nM
[2]
  IC50: > 200 nM
[3]
  Papp at 18 h, 25 ug/ml: 6.84 ×10⁻⁶ cm/s
[4]
  IC50: 84.2 nM

## O=C1C(Cc2ccccc2)N(S(=O)(=O)c2ccc(Br)cc2)C(=O)C(Cc2ccccc2)N1S(=O)(=O)c1ccc(Br)cc1 (centres undefined)
[1]
  IC50: 38.7 nM
[2]
  IC50: 181 nM
[3]
  Papp at 18 h, 25 ug/ml: 7.29 ×10⁻⁶ cm/s
[4]
  IC50: 57 nM

## O=C1C(Cc2ccccc2)N(S(=O)(=O)c2cccc(Br)c2)C(=O)C(Cc2ccccc2)N1S(=O)(=O)c1cccc(Br)c1 (centres undefined)
[1]
  IC50: 58.1 nM
[2]
  IC50: 191 nM
[3]
  Papp at 18 h, 25 ug/ml: 8.06 ×10⁻⁶ cm/s
[4]
  IC50: 76.7 nM

## O=C1C(Cc2ccccc2)N(S(=O)(=O)c2ccc(O)cc2)C(=O)C(Cc2ccccc2)N1S(=O)(=O)c1ccc(O)cc1 (centres undefined)
[1]
  IC50: 72 nM
[2]
  IC50: 199 nM
[3]
  Papp at 18 h, 25 ug/ml: 5.68 ×10⁻⁶ cm/s
[4]
  IC50: 59.5 nM

## CN(C)CCCN1c2ccccc2Sc2ccc(Cl)cc21 [CHLORPROMAZINE]
[3]
  Papp at 18 h, 25 ug/ml: 5.9 to 6.5 ×10⁻⁶ cm/s

## NCCc1ccc(O)c(O)c1 [DOPAMINE]
[3]
  Papp at 18 h, 25 ug/ml: 0.17 to 0.2 ×10⁻⁶ cm/s

## O=C1CN(S(=O)(=O)c2ccccc2)C(=O)CN1S(=O)(=O)c1ccccc1
[1]
  IC50: 82.2 nM
[2]
  IC50: > 200 nM
[4]
  IC50: 98.5 nM

## Nc1ccc(S(=O)(=O)N2C(=O)C(c3ccccc3)N(S(=O)(=O)c3ccc(N)cc3)C(=O)C2c2ccccc2)cc1 (centres undefined)
[1]
  IC50: 50.6 nM
[2]
  IC50: > 200 nM
[3]
  Papp at 18 h, 25 ug/ml: 5.53 ×10⁻⁶ cm/s
[4]
  IC50: 91.3 nM

## O=C1C(c2ccccc2)N(S(=O)(=O)c2ccc(Br)cc2)C(=O)C(c2ccccc2)N1S(=O)(=O)c1ccc(Br)cc1 (centres undefined)
[1]
  IC50: 32.7 nM
[2]
  IC50: 183 nM
[3]
  Papp at 18 h, 25 ug/ml: 8.31 ×10⁻⁶ cm/s
[4]
  IC50: 50.6 nM

## Cc1ccc(S(=O)(=O)N2CC(=O)N(S(=O)(=O)c3ccc(C)cc3)CC2=O)cc1
[1]
  IC50: 86.7 nM
[2]
  IC50: > 200 nM
[3]
  Papp at 18 h, 25 ug/ml: 10.4 ×10⁻⁶ cm/s
[4]
  IC50: 118 nM

## COc1ccc(S(=O)(=O)N2CC(=O)N(S(=O)(=O)c3ccc(OC)cc3)CC2=O)cc1
[1]
  IC50: 75.3 nM
[2]
  IC50: > 200 nM
[3]
  Papp at 18 h, 25 ug/ml: 6.46 ×10⁻⁶ cm/s
[4]
  IC50: 91.5 nM

## Cc1ccc(S(=O)(=O)N2C(=O)C(c3ccccc3)N(S(=O)(=O)c3ccc(C)cc3)C(=O)C2c2ccccc2)cc1 (centres undefined)
[1]
  IC50: 62.9 nM
[2]
  IC50: > 200 nM
[3]
  Papp at 18 h, 25 ug/ml: 11.3 ×10⁻⁶ cm/s
[4]
  IC50: 76.4 nM

## O=C1C(c2ccccc2)N(S(=O)(=O)c2cccc(Br)c2)C(=O)C(c2ccccc2)N1S(=O)(=O)c1cccc(Br)c1 (centres undefined)
[1]
  IC50: 54.7 nM
[2]
  IC50: 193 nM
[3]
  Papp at 18 h, 25 ug/ml: 9.45 ×10⁻⁶ cm/s
[4]
  IC50: 76.6 nM

## O=C1C(c2ccccc2)N(S(=O)(=O)c2ccc(Cl)cc2)C(=O)C(c2ccccc2)N1S(=O)(=O)c1ccc(Cl)cc1 (centres undefined)
[5]
  LD50 at 72 h: 200 mg/kg
[6]
  viability at 70 µM: 99.4%
[1]
  IC50: 19.6 nM
[7]
  Activity: Toxic
[8]
  Ki: 7 nM
[2]
  IC50: 161 nM
[9]
  Ki: 20 nM
[3]
  Papp at 18 h, 25 ug/ml: 7.38 ×10⁻⁶ cm/s
[10]
  Activity: Non-Toxic
[4]
  IC50: 28.6 nM

## O=C1CN(S(=O)(=O)c2cccc(Cl)c2)C(=O)CN1S(=O)(=O)c1cccc(Cl)c1
[1]
  IC50: 58 nM
[2]
  IC50: 197 nM
[3]
  Papp at 18 h, 25 ug/ml: 8.37 ×10⁻⁶ cm/s
[4]
  IC50: 66.7 nM

## CCn1cc(C(=O)O)c(=O)c2cc(F)c(N3CCNC(C)C3)c(F)c21 (centres undefined) [LOMEFLOXACIN]
[3]
  Papp at 18 h, 25 ug/ml: 0.31 to 1.1 ×10⁻⁶ cm/s

## O=C1CN(S(=O)(=O)c2ccc(F)cc2)C(=O)CN1S(=O)(=O)c1ccc(F)cc1
[1]
  IC50: 55.1 nM
[2]
  IC50: 186 nM
[3]
  Papp at 18 h, 25 ug/ml: 10.3 ×10⁻⁶ cm/s
[4]
  IC50: 78.3 nM

## O=C1CN(S(=O)(=O)c2ccc(Br)cc2)C(=O)CN1S(=O)(=O)c1ccc(Br)cc1
[1]
  IC50: 54.7 nM
[2]
  IC50: 191 nM
[3]
  Papp at 18 h, 25 ug/ml: 8.87 ×10⁻⁶ cm/s
[4]
  IC50: 81.8 nM

## O=C1C(Cc2ccccc2)N(S(=O)(=O)c2ccc(Cl)cc2)C(=O)C(Cc2ccccc2)N1S(=O)(=O)c1ccc(Cl)cc1 (centres undefined)
[5]
  LD50 at 72 h: 200 mg/kg
[1]
  IC50: 36.8 nM
[7]
  Activity: Toxic
[2]
  IC50: 158 nM
[3]
  Papp at 18 h, 25 ug/ml: 12.3 ×10⁻⁶ cm/s
[10]
  Activity: Non-Toxic
[4]
  IC50: 32.5 nM

## Cc1nnc2n1-c1ccc(Cl)cc1C(c1ccccc1)=NC2 [ALPRAZOLAM]
[3]
  Papp at 18 h, 25 ug/ml: 4.6 to 5.4 ×10⁻⁶ cm/s

## CC(=O)[C@H]1CC[C@H]2[C@@H]3CCC4=CC(=O)CC[C@]4(C)[C@H]3CC[C@]12C [PROGESTERONE]
[3]
  Papp at 18 h, 25 ug/ml: 9.3 to 15.8 ×10⁻⁶ cm/s

## O=C1C(Cc2ccccc2)N(S(=O)(=O)c2ccc([N+](=O)[O-])cc2)C(=O)C(Cc2ccccc2)N1S(=O)(=O)c1ccc([N+](=O)[O-])cc1 (centres undefined)
[1]
  IC50: 53.8 nM
[2]
  IC50: 163 nM
[3]
  Papp at 18 h, 25 ug/ml: 4.49 ×10⁻⁶ cm/s
[4]
  IC50: 57.4 nM

## CCCCS(=O)(=O)N1CC(=O)N(S(=O)(=O)CCCC)CC1=O
[1]
  IC50: > 1000 nM
[2]
  IC50: > 200 nM
[3]
  Papp at 18 h, 25 ug/ml: 1.06 ×10⁻⁶ cm/s
[4]
  IC50: > 200 nM

## O=C1C(Cc2ccccc2)N(S(=O)(=O)c2cccc(O)c2)C(=O)C(Cc2ccccc2)N1S(=O)(=O)c1cccc(O)c1 (centres undefined)
[1]
  IC50: 83 nM
[2]
  IC50: > 200 nM
[3]
  Papp at 18 h, 25 ug/ml: 6.36 ×10⁻⁶ cm/s
[4]
  IC50: 69.8 nM

## Nc1ccc(S(=O)(=O)N2CC(=O)N(S(=O)(=O)c3ccc(N)cc3)CC2=O)cc1
[1]
  IC50: 53.1 nM
[2]
  IC50: > 200 nM
[3]
  Papp at 18 h, 25 ug/ml: 6.1 ×10⁻⁶ cm/s
[4]
  IC50: 86.3 nM
